Reference: PMC10377601, “Side Chain-Modified Benzothiazinone Derivatives with Anti-Mycobacterial Activity” (Biomedicines, 2023)
In brackets after ≈: the same amount, converted by molar mass.

Legend:
in vitro = in vitro ADME; parameters: dose or concentration left out as unconfirmed; settings: human, microsomes, pH 7.4
Protocol: The compounds’ metabolic stability were determined in human liver microsomes. A solution of microsomes (0.2 mg/mL) containing the compounds […], NADPH (1 mM), and phosphate buffer (100 mM, pH 7.4) were prepared. Pre-incubation was conducted at 37 °C for 10 min. There was addition of 50 µL and 5 mM NADPH to initiate the reaction. At 5, 15, 30, 60, or 120 min, 30 µL of reaction solution was taken out and quenched with 300 µL internal standard tolbutamide (10 ng/mL) in cold CH3CN. The mixture was centrifuged at 6000 rpm for 15 min at 4 °C. Then, 100 μL supernatant was diluted with 100 uL ultrapure water (Millipore, ZMQS50F01). The solution was analyzed via LC/MS analysis.

M. tuberculosis H37Rv [1] = test: [14C]-acetate metabolic labeling, TLC analysis of lipids; type: cell-based; settings: Mtb H37Rv, 10 × MIC, 100 × MIC, 24 h, compared to control bacteria
M. tuberculosis H37Rv [2] = test: In vivo efficacy, mouse model acutely infected with Mtb H37Rv, lung CFU; settings: BALB/C mice, oral 50 mg/kg once per day for 4 weeks except weekends
[3] = biological target: T1, recombinant M. tuberculosis DprE1 enzyme (Mycobacterium tuberculosis, UniProt P9WJF1); test: DprE1 inhibition, Amplex Red/peroxidase coupled assay; type: biochemical; settings: Mtb DprE1
T1 construct: made in house; host or cells: E. coli
T1 sequence (P9WJF1 whole entry): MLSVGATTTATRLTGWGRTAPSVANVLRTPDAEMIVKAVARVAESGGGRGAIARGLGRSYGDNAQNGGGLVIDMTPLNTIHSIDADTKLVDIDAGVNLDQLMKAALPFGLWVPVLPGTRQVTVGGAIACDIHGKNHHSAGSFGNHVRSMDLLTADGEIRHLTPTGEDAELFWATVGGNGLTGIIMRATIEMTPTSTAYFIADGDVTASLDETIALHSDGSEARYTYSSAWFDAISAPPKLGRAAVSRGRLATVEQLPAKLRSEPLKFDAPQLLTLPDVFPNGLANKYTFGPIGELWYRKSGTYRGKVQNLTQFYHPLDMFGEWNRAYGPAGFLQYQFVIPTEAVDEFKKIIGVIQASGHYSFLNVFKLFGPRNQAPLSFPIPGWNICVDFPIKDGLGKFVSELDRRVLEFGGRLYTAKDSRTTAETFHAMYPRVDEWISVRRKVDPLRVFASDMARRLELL

[4] = Pharmacokinetic study in mice; type: in vivo; settings: male, ICR, mouse, plasma; for clearance: read-out: Clint (hepatic clearance) (converted); for bioavailability: oral, p.o. 10 mg/kg vs i.v. 2 mg/kg, read-out: F (oral bioavailability)
From the text: Animal Care and Welfare Committee of Shanghai Institute of Materia Medica, Chinese Academy of Sciences approved all animal protocols. All animal programs are in compliance with the Guide for the Care and Use of Laboratory Animals issued by Shanghai Association on Laboratory Animal Care (SALAC). SPF male ICR mice weighing 25–27 g were divided into two groups, three mice in each group. The tested compounds were administrated via oral and intravenous injection, separately. […] The compound was co-dissolved by using 0.5% carboxymethyl cellulose for p.o. administration, and 10% DMSO/40%PEG400/40% water was used for i.v. administration, respectively. After oral dosing or i.v. administration, the blood was sampled at 5, 15, 30 min, and 1, 2, 4, 7, and 24 h. The sample plasma was harvested and stored at −80 °C for analysis. Based on noncompartmental analysis (Pharsight Corporation, Sunnyvale, CA, USA), the pharmacokinetic data were analyzed using WinNonlin software version 6.3.

E. coli = test: Inhibitory potency against E. coli; type: cell-based; settings: at 16 µg/mL
[5] = Cytotoxicity against HepG2 cell, MTT assay; type: cell-based; settings: human, HepG2 cells, at 5.0 μg/mL, 24 h
Protocol: (§1) HepG2 cells we r e obtained from the Chinese Type Culture Collection (Shanghai, China) and maintained in Dulbecco’s modiﬁed eagle medium (Gibco; #C11995500BT) con‐ taining 1% (v/v) penicillin/streptomycin (Beyotime; #C0222) and 10% (v/v) fetal bovine se‐ rum (Gibco; #GB10270106) in an atmosphere of 5% CO2 at 37 °C. HepG2 cells we r e seeded into 96‐we l l plates at a density of 5,000 cells/well (100 µL total volume) and treated with diﬀerent concentrations of compound 2 and 37 (0, 0.025, 0.2, 1, 5, and 10 µg/mL). After 24 h the medium wa s removed and the cells we r e incubated in a fresh medium containing 5 mg/mL MTT for 4 h. The medium wa s then removed and the precipitated formazan wa s dissolved in 100 µL of DMSO followed by shaking for 10 min. Finally, the absorbance at 570 nm wa s measured on a microplate spectrophotometer. Each treatment wa s performed […]
(§2) Figure S1. Inhibitory activity of compounds 2 and 37 against HepG2 cell. […]

HepG2 cell = test: Cytotoxicity against HepG2 cell, MTT assay; type: cell-based; settings: at a concentration lower than 1.0 μg/mL
Protocol: as §1, §2

[6] = Kinetic solubility in PBS; settings: pH 7.4, aqueous buffer, kinetic from dmso stock
M. tuberculosis H37Rv [7] = test: MIC determination by microplate alamar blue assay (MABA); type: cell-based; settings: Mycobacterium tuberculosis
[8] = test system: Mycobacterium tuberculosis; parameters: method as in PMID 24500695; settings: whole-cell activity; cited from earlier work
physchem = settings: pH 7.4, aqueous buffer, kinetic from dmso stock

| Compound | CLint scaled (in vitro) | half-life (in vitro) | Lipid profile after [14C]-acetate labeling (M. tuberculosis H37Rv [1]) | Reduction of bacteria load in the lungs compared to the control group (M. tuberculosis H37Rv [2]) | IC50 [3] | AUC ([4]; IV 2 mg/kg) | Cmax ([4]; IV 2 mg/kg) | MRT ([4]; IV 2 mg/kg) | half-life ([4]; IV 2 mg/kg) | clearance ([4]; IV 2 mg/kg) | AUC ([4]; PO 10 mg/kg) | Cmax ([4]; PO 10 mg/kg) | MRT ([4]; PO 10 mg/kg) | half-life ([4]; PO 10 mg/kg) | bioavailability [4] | Inhibitory potency against E. coli (E. coli) | viability at 24 h, 5 μg/mL [5] | Inhibition of HepG2 cell viability (HepG2 cell) | solubility at 4 h [6] | MIC (M. tuberculosis H37Rv [7]; Mtb H37Rv, MABA) | other results |
| --- | --- | --- | --- | --- | --- | --- | --- | --- | --- | --- | --- | --- | --- | --- | --- | --- | --- | --- | --- | --- | --- |
| CN(Cc1cn(-c2ccccc2)nn1)c1nc(=O)c2cc(C(F)(F)F)cc([N+](=O)[O-])c2s1 [Compound 2, 2-{methyl[(1-phenyl-1H-1,2,3-triazol-4-yl)methyl]amino}-BTZ] | 17.3 mL/min/kg | 1.67 h | accumulated trehalose monomycolates (TMM) and trehalose dimycolates (TDM) | barely displayed efficacy | 20 to 750 nM | 1210 ng·h/mL | 1250 ng/mL | 1.5 h | 1.1 h | 27.8 mL/min/kg | 2190 ng·h/mL | 1800 ng/mL | 2 h | 1.3 h | 35.7% | no obvious activity | 72 to 75% | No inhibition of cell viability | 0.13 µg/mL (≈ 0.281 µM) | 9 nM | MIC (M. tuberculosis H37Rv [7]; 168 h, Mtb H37Rv, MABA): 9 nM |
| O=c1nc(N2CCN(CC3CCCCC3)CC2)sc2c([N+](=O)[O-])cc(C(F)(F)F)cc12 [PBTZ169, reference compound] |  |  | accumulated trehalose monomycolates (TMM) and trehalose dimycolates (TDM) | 3 logs |  |  |  |  |  |  |  |  |  |  |  |  |  |  |  | < 4 nM | minimal inhibitory concentration (MIC) [8]: lower than 0.004 µM; MIC (M. tuberculosis H37Rv [7]; H37Rv, Table S1): 0.2 ng/mL; solubility at 4 h (physchem): < 0.011 µg/mL |
| CN(Cc1nnc(-c2ccccc2)o1)c1nc(=O)c2cc(C(F)(F)F)cc([N+](=O)[O-])c2s1 [Compound 37, 2-{methyl[(5-phenyl-1,3,4-oxadiazol-2-yl)methyl]amino}-BTZ] | 25.5 mL/min/kg | 1.14 h | accumulated trehalose monomycolates (TMM) and trehalose dimycolates (TDM) | 1.2 logs | 20 to 750 nM | 528 ng·h/mL | 1860 ng/mL | 0.4 h | 0.3 h | 64 mL/min/kg | 1870 ng·h/mL | 1890 ng/mL | 0.9 h | 0.6 h | 70.6% | no obvious activity | 72 to 75% | No inhibition of cell viability | 0.25 µg/mL (≈ 0.539 µM) | 6 nM |  |
| C[C@H]1COC2(CCN(c3nc(=O)c4cc(C(F)(F)F)cc([N+](=O)[O-])c4s3)CC2)O1 [BTZ043] |  |  |  |  |  |  |  |  |  |  |  |  |  |  |  |  |  |  |  |  | minimal inhibitory concentration (MIC) [8]: lower than 0.004 µM |
